Experimental data taken from a melting point compilation (Tetko et al.; mined from patent text by program, amines drawn as free bases though some values may be those of a salt).

Structure (SMILES) | melting point
CCN(CC)C(=O)COC(=O)C(C)c1ccc2cc(OC)ccc2c1 (stereo not drawn) | 89 to 89.5 °C
CCCCc1nn(-c2cccc(N)c2)c(=O)n1Cc1ccc(-c2ccccc2S(=O)(=O)NC(=O)c2ccccc2Cl)cc1 | 137 to 139 °C
O=CC=CC(=C(c1ccc(F)cc1)c1ccc(F)cc1)n1cnnn1 | 152 to 154 °C
CCCCCCCCCCCCCCCCCCOc1cc(C(=O)OC)cc(N(CC(=O)O)CC(=O)O)c1 | 119 to 123 °C
Cc1cc(SC2=C(O)CC(CCc3cccs3)(C(C)C)OC2=O)c(C(C)(C)C)cc1CO (stereo not drawn) | 73 to 77 °C
Cc1ccc(S(=O)(=O)N(C)SSN(C)S(=O)(=O)c2ccc(C)cc2)cc1 | 90 to 94 °C
CCCCCCCCC=CCCCCCCCCCCCC(=O)NCCOC(C)=O | 51 °C
CN(c1ccc(O)cc1)c1nc2cc(Cl)c(Cl)cc2nc1Cl | 176 °C
CNC(=O)c1ccc(N2CCNCC2)c(Cl)c1 | 176 to 189 °C
CCOC(=O)CCC(=O)c1ccc(OCCCCCBr)c(CCC(=O)OCC)c1 | 40 to 41 °C
Cc1ccc(Cl)cc1NC(=O)c1cc([N+](=O)[O-])ccc1NC(=O)CF | 210 to 212 °C
C[C@@H](N(CC(=O)O)C(=O)c1ccc(OCC(F)(F)C(F)F)cc1)[C@](O)(Cn1cncn1)c1ccc(Cl)cc1Cl (relative stereo) | 192 to 193 °C
CNc1cc(O)cc(O)c1 | 130 °C
OC(C#CI)(c1ccc(-c2ccccc2)cc1)c1cccc(Cl)c1 (stereo not drawn) | 99 to 100 °C
COc1cccc(-c2cnn(-c3ccccn3)c2)c1 | 89 to 90 °C
CC(C)NC(=O)C(C#N)=Cc1cc(O)c(O)c([N+](=O)[O-])c1 | 243 to 245 °C
O=S(=O)(Nc1cccc2cc(-c3nccs3)[nH]c12)c1cccs1 | 164 to 165 °C
O=C(Nc1ccccc1)c1ccc(-c2n[nH]c3c2Cc2ccccc2-3)cc1 | 186 to 190 °C
O=C1c2ccccc2C(=O)N1c1ccc2ccc(F)nc2n1 | 245 °C
CSC(=NC(=O)N(C)C)N(C)C(=O)Nc1ccccc1 | 74 to 77 °C
NC(Cc1ccc(C(=O)c2ccccc2)cc1)C(=O)O (racemic) | 217 °C
Cn1c(=N)c(C(=O)NCCO)c(O)c2cc(Cl)ccc21 | 234 to 237 °C
CCn1nc(OC2CSCCC2=O)c(-c2ccc(F)cc2)c1-c1ccc(S(C)(=O)=O)cc1 (stereo not drawn) | 210 to 211 °C

Structure (SMILES) | melting point
COc1ccc(CS[C@@H]2CN[C@H](C(N)=O)C2)cc1 | 120 to 121 °C
COc1ccc(C(C)(C)C)cc1C(=O)NCCc1ccc(OC)c(S(N)(=O)=O)c1 | 165 to 168 °C
Nc1ccc(-c2ccc(Cl)cc2)cn1 | 122 to 124 °C
c1ccc(-c2ccc(Cc3ccco3)[nH]2)cc1 | 79 to 80 °C
CCCNC(=O)NCCCCCN1CCC(CNC(=O)c2cc(Cl)c(N)cc2OC)CC1 | 144 to 147 °C
Cc1cc(C(C)(C)C)c(O)c(C)c1COC(=O)CCCCC(=O)OCc1c(C)cc(C(C)(C)C)c(O)c1C | 156 to 158 °C
O=[N+]([O-])c1ccc(COP(=O)(COS(=O)(=O)C(F)(F)F)OCc2ccc([N+](=O)[O-])cc2)cc1 | 73 to 75 °C
CN1C(=O)C(c2cccc(-c3cccnc3F)c2)(c2cc(C=O)n(CCF)c2)N=C1N (stereo not drawn) | 218 to 221 °C
CC(C)(C)C(=O)OCOC(=O)Cn1c(=O)c2cc(Cl)ccc2n(Cc2ccc(Cl)c(Cl)c2)c1=O | 124 to 126 °C
Cc1oc(-c2ccccc2)nc1CCc1noc(COc2ccccc2CC(=O)O)n1 | 120 to 121 °C
COC(=O)C1=C(C(OC)OC)NC(C)=C(C(=O)OCC(C)C)C1c1ccccc1C#N (stereo not drawn) | 126 to 128 °C
CNC(=O)Nc1ccc(Cl)cc1Cl | 214 °C
COC(=O)NNc1ccc(C)c2c1OC(C)C2 (stereo not drawn) | 62 to 65 °C
COc1ccc(/C=C/c2c(Cl)cncc2Cl)c2c1OC(C)(C)C2 | 114 to 118 °C
Cc1ccc(-c2[nH]c(-c3c(C)cc(C)cc3C)nc2-c2ccncc2)cc1 | 277 to 279 °C
CN(Cc1cc(C(F)(F)F)cc(C(F)(F)F)c1)C(=O)c1nc(NCc2ccccc2)ncc1-c1ccccc1 | 128 to 130 °C
CCCCCCCCCCCCCCCCCCCCC(COC(C)=O)(COC(C)=O)NC(C)=O | 93 to 94 °C
Clc1ccc(N2CCN(Cc3c[nH]c4ncccc34)CC2)cc1 | 226 to 227 °C
O=C(c1ccc(Cl)cc1)c1c(N2C(=O)c3ccccc3C2=O)sc(Br)c1CN(C1CCCCC1)C1CCCCC1 | 173 to 175 °C
O=C1Nc2cccc(-c3cccc(NC(=O)c4cccc([N+](=O)[O-])c4)c3)c2/C1=C/c1ccc[nH]1 | 265 to 266 °C
COc1ccc(-c2ccc(C(C)=NOCCO)cc2)cc1 | 164 to 166 °C
CNc1nc2ccncc2[nH]1 | 256 °C
CC(=O)NC[C@H]1CN(c2ccc(C(=O)c3cnc4nc(C)cc(C)n34)cc2)C(=O)O1 | 253 to 254 °C

Structure (SMILES) | melting point
CCOC(=O)c1cn(CC)c2cc(C(=O)C=CN(C)C)c(F)cc2c1=O | 176 to 179 °C
O=c1oc(-c2ccccc2)cc(O)c1C(CCCSc1ccccc1)Sc1ccccc1 (stereo not drawn) | 75 to 77 °C
CC(C)c1cccc(NC(=O)c2ccccc2[N+](=O)[O-])c1 | 65.5 to 68.5 °C
OCc1cc(O)cc2cc(-c3ccc(O)cc3)oc12 | 258 to 260 °C
Cc1ccc(Oc2cc(-c3ccc(Br)cc3)oc2-c2ccc(Br)cc2)cc1 | 92 to 93 °C
CC1(c2c[nH]cn2)CCCCC1 | 73 to 75 °C
Cc1nc(C=O)c2n1-c1ccc(Cl)cc1C(c1ccccc1)=NC2 | 218 to 220 °C
C[C@H]1N(C(=O)c2ccc(OCC(F)(F)C(F)F)cc2)CC(O)O[C@@]1(Cn1cncn1)c1ccc(F)cc1F (relative stereo) | 209 to 210 °C
CCCOC(=O)c1cc(=O)c2c(OCc3ccc(OCc4ccc5ccccc5n4)cc3)c(Cl)ccc2o1 | 173 to 174 °C
C=C(C)c1cccc(C(C)(C)N=C=O)c1 | 60 to 62 °C
CC1CCCCC1C(=O)Nc1ccc(-c2cnc(-c3ccc(NC(=O)C4CCCCC4)cc3)[nH]2)cc1 (stereo not drawn) | 221 to 223 °C
Fc1cccc(-c2ncc(-c3cnc(-c4ccccc4)nc3)[nH]2)c1 | 221 °C
O=S=NNc1cccc(C(F)(F)F)c1 | 100 °C
CC(C)SCCCCCCCCCCCC(=O)Nc1ccccc1OCCCC(=O)O | 82 to 84 °C
O=S(=O)(Nc1ccc(Cl)nc1I)c1ccc2ncsc2c1 | 191 °C
CC(C)(C(=O)NCCn1ccc2ncnc(Nc3ccc(Oc4cccc(C(F)(F)F)c4)c(Cl)c3)c21)S(C)(=O)=O | 167 to 168 °C
CN(C)/C=C/C(=O)c1ccc(OCCCCN2C(=O)c3ccccc3C2=O)cc1 | 109 to 111 °C
CCNC(=O)c1cc(C)c(C(c2cc(F)ccc2F)S(=O)(=O)c2ccc(F)cc2)cn1 (stereo not drawn) | 191 to 193 °C
CCCCCCCCCCCCCCCCCCC(N=C(c1ccccc1)c1ccccc1)C(=O)OCC (stereo not drawn) | 62 to 65 °C
NC(=S)C=Cc1ccc(SC(F)(F)F)cc1 | 143 to 144 °C
CON=Cc1ccccc1OCc1ccccc1C(=NOC)C(=O)OC | 73 to 76 °C

Further lines, results first:

melting point | Structure (SMILES)
104 °C | CCC(C)N(C)C(=O)c1cc2sccc2c(-c2ccccc2)n1 (stereo not drawn)
107 to 109 °C | OCc1ccc2c(c1)ncn2-c1cccc(Br)c1
55 to 57 °C | COc1ccc(C2(C=O)CCC(=O)CC2)cc1OC1CCCC1
66 °C | Cc1ccc2c(NCc3ccc(NC(=O)C4CCN(Cc5ccccc5)CC4)cc3)nc(N3CCCCCC3)nc2c1
111 to 113 °C | CCC1(CO)CCCN2CCC3=c4ccccc4=NC3=C21 (stereo not drawn)
123 to 125 °C | CCCN(CCC)CCOc1ccc2[nH]c(C)c(C(=O)OCc3ccccc3)c2c1
164 to 165 °C | COc1cc(OC)c(N2CCCC2)cc1/C=C/C(=O)c1ccc(S(=O)(=O)Nc2cc(C)on2)cc1
129 to 135 °C | CN1C(=O)CC[C@]2(C)c3ccc(-c4cnc5ccccc5n4)cc3CC[C@@H]12
134 °C | CC(C)N1CCN(CCN2CCC(c3cn(-c4ccc(F)cc4)c4cc(Cl)ccc34)CC2)C1=O
193 to 195 °C | CN1CCN(c2ccc(Nc3ncc4ccc(-c5ccccc5OCC(=O)OC(C)(C)C)n4n3)cc2)CC1
150 to 151 °C | Cc1ccc(N2CCN(c3c(C)c(C)c4c(c3C)CC(C)O4)CC2)cc1 (stereo not drawn)
62 to 64 °C | C=CCN1C(=O)C(C)N(c2ccc(Cc3ccccc3)cc2)C1=S (stereo not drawn)
140 to 142 °C | CSc1cccc(Cc2sc(NC(C)=O)nc2CO)c1
95 to 98 °C | COc1ccc(C)cc1NC(=O)Nc1ccc2c(c1)CCN(C(=O)Oc1ccc(CCO)cc1Cl)C2
229 to 230 °C | Nc1ccc(Cn2nc3ccccc3n2)cc1
190 to 191 °C | CCCC(CCC)C(=O)NC(=O)C(N)c1ccccc1 (stereo not drawn)

melting point | Structure (SMILES)
178 to 188 °C | CCCc1nc2c(N)nc3ccccc3c2n1CCCCN(OC)S(C)(=O)=O
129 to 131 °C | COc1cccc(N2CCCN(/C(C)=C(/C#N)C(N)=S)CC2)c1
196 °C | CN1CCC2(CC1)NC(c1ccccc1)c1cc(Cl)ccc1N(C)C2=O (stereo not drawn)
275 °C | COc1ccc2c3c(nn(CCO)c13)-c1ccccc1N2
144 to 145 °C | COn1c(C)nc(N2CCc3ccccc3CC2)c(C#N)c1=O
50 to 52 °C | O=C(NCCc1ccccc1)C(F)(F)F
173 to 175 °C | CC1=CCC(NC(=O)NS(=O)(=O)c2ccc(CCNC(=O)N3CCC(C)CC3=O)cc2)CC1 (stereo not drawn)
125 to 126 °C | CCOC(=O)c1cn(-c2c(OCc3ccccc3)cccc2OCc2ccccc2)cn1
229 to 230 °C | O=C(CN1C(=O)C2(COc3cc4c(cc32)CCO4)c2cc(Cl)ccc21)Nc1ccccc1F (stereo not drawn)
174 to 178 °C | CC(C(=O)O)c1ccc(-c2nc3ccccc3o2)cc1 (stereo not drawn)
110 to 113 °C | OCCOCCOCCN1CCC(=C2c3ccccc3CC(O)c3sccc32)CC1 (stereo not drawn)
198 °C | O=c1[nH]nc2n1-c1ccccc1OC2
107 °C | Cn1c(CCCO)nc2ccccc21
155 to 157 °C | O=C(O)c1cccc(OCc2csc(-c3ccccc3)n2)c1
312 to 313 °C | Cc1nc2c3c(c(C(=O)NC4CC4)cc2n1C)CCC(c1ccccc1)O3 (stereo not drawn)
